Like-named read-outs stand apart in the source and are kept apart here.
How the values were obtained:
[1] = molecular target: T1, Transporter, Dopamine (DAT) (Homo sapiens, UniProt Q01959); assay: Radioligand binding, Transporter, Dopamine (DAT) (Eurofin Discovery 220320); conditions: for DAT, %inhibition 10 nM: 10 nM compound; for DAT, %inhibition 100 nM / inhibition at 0.1 µM: 100 nM compound
T1 construct: host or cells: CHO-S cells

[2] = molecular target: T2, Transporter, Norepinephrine (NET) (Homo sapiens, UniProt P23975); assay: Radioligand binding, Transporter, Norepinephrine (NET) (Eurofin Discovery 204410)
T2 construct: host or cells: MDCK cells

[3] = molecular target: T3, MCHR1 (Homo sapiens, UniProt Q99705); assay: MCHR1 pharmacology of the N-acetyl metabolite
Source text: By substituting the hydrogens with deuterium on the carbon(s) adjacent to the nitrogen which is acetylated (see for example, Examples 5 to 7), acetylation process can be slowed down to reduce the formation of this metabolite.
Target sequence in this assay (Q99705 whole entry, species assumed): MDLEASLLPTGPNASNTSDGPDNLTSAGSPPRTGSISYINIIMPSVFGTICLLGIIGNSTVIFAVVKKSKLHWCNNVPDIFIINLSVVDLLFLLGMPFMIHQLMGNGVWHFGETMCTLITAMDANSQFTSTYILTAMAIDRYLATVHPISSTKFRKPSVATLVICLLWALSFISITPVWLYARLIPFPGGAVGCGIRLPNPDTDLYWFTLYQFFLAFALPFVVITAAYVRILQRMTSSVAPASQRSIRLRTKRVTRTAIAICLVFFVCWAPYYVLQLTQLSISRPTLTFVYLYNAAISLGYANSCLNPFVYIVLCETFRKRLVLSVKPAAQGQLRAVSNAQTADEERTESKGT

[4] = molecular target: T4, DAT (Homo sapiens, UniProt Q01959); conditions: cited from earlier work
T4 construct: from tissue; host or cells: striatum of healthy male volunteers, in vivo PET

[5] = molecular target: NET (Homo sapiens, UniProt P23975); conditions: at efficacious doses; cited from earlier work
[6] = molecular target: T1, Transporter, Dopamine (DAT); conditions: radioligand, Historical Values; cited from earlier work
[7] = molecular target: T2, Transporter, Norepinephrine (NET); conditions: radioligand, Historical Values; cited from earlier work
[8] = system: PWS patients; conditions: standard mg/day dosing, cited from earlier work
[9] = molecular target: T3, MCHR1; design: host or cells: CHO-K1 cells; conditions: radioligand, Historical Values; cited from earlier work
Target sequence in this assay (Q99705 whole entry): as the sequence (Q99705 whole entry, species assumed) above

T2 sequence (P23975 whole entry): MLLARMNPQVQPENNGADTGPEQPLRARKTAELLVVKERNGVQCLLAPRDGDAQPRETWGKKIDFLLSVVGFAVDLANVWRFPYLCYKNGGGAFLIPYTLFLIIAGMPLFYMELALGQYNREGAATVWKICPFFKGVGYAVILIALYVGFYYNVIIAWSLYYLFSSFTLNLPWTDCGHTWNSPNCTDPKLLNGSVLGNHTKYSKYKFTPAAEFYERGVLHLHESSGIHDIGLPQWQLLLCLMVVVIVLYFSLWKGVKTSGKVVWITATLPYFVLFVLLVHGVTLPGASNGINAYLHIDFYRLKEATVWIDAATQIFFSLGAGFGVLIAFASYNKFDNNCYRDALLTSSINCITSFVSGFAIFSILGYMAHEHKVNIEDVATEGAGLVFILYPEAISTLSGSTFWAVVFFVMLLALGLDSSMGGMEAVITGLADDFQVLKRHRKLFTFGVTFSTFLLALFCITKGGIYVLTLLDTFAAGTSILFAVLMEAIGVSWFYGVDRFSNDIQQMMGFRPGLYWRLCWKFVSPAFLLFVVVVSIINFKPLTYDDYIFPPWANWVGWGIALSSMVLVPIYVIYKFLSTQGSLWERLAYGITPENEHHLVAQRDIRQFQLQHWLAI
NET, sequence (P23975 whole entry): as above
T4 sequence (Q01959 whole entry): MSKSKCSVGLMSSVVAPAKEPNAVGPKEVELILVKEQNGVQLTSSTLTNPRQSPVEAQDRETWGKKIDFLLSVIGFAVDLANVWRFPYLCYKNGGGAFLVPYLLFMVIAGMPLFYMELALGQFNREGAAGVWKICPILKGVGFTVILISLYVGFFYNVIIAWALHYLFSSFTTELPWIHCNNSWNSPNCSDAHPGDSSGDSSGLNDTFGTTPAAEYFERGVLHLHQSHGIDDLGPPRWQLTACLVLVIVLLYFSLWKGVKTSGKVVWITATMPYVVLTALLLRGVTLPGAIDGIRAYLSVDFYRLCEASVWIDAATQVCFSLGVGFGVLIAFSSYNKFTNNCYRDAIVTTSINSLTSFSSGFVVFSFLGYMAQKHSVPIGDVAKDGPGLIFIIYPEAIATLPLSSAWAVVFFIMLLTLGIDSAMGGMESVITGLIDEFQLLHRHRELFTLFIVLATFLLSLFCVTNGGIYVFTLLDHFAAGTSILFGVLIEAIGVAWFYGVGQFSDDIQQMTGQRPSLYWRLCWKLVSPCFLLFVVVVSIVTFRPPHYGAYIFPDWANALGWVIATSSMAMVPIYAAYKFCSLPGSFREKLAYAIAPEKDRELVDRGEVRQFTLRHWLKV
T1 sequence (Q01959 whole entry): as above

## [2H]C1([2H])NC([2H])([2H])C([2H])(c2ccc(Cl)c(Cl)c2)c2ccc(-c3ccc4ncnn4c3)cc21 (single isomer, unassigned) [Compound 8A, 7-([1,2,4]triazolo[1,5-a]pyridin-6-yl)-4-(3,4-dichlorophenyl)-1,2,3,4-tetrahydroisoquinoline-1,1,3,3,4-d5]
[1]
  DAT, %inhibition 10 nM: 44%

## [2H]C1([2H])NC([2H])([2H])C([2H])(c2ccc(Cl)c(Cl)c2)c2ccc(-c3ccc4ncnn4c3)cc21 (single isomer, unassigned) [Compound 8B, 7-([1,2,4]triazolo[1,5-a]pyridin-6-yl)-4-(3,4-dichlorophenyl)-1,2,3,4-tetrahydroisoquinoline-1,1,3,3,4-d5]
[2]; 10 nM compound
  NET, %inhibition 10 nM: 37%
[2]; 100 nM compound
  NET, %inhibition 100 nM: 71%
[1]
  DAT, %inhibition 10 nM: 4%
  DAT, %inhibition 100 nM: 75%

## [2H]C1([2H])NCC(c2ccc(Cl)c(Cl)c2)c2ccc(-c3ccc4ncnn4c3)cc21 (single isomer, unassigned) [Compound 12A, 7-([1,2,4]triazolo[1,5-a]pyridin-6-yl)-4-(3,4-dichlorophenyl)-1,2,3,4-tetrahydroisoquinoline-1,1-d2]
[1]
  DAT, %inhibition 10 nM: 53%
  inhibition at 0.1 µM: 92%

## [2H]C1([2H])NCC(c2ccc(Cl)c(Cl)c2)c2ccc(-c3ccc4ncnn4c3)cc21 (single isomer, unassigned) [Compound 12B, 7-([1,2,4]triazolo[1,5-a]pyridin-6-yl)-4-(3,4-dichlorophenyl)-1,2,3,4-tetrahydroisoquinoline-1,1-d2]
[2]; 10 nM compound
  NET, %inhibition 10 nM: 44%
[2]; 100 nM compound
  NET, %inhibition 100 nM: 74%
[1]
  DAT, %inhibition 10 nM: 0%
  DAT, %inhibition 100 nM: 74%

## [2H]C1([2H])NCc2cc(-c3ccc4ncnn4c3)ccc2C1([2H])c1ccc(Cl)c(Cl)c1 (single isomer, unassigned) [Compound 16A, 7-([1,2,4]triazolo[1,5-a]pyridin-6-yl)-4-(3,4-dichlorophenyl)-1,2,3,4-tetrahydroisoquinoline-3,3,4-d3]
[2]; 10 nM compound
  inhibition at 0.01 µM: 38%
[2]; 100 nM compound
  inhibition at 0.1 µM: 83%
[1]
  DAT, %inhibition 10 nM: 47%
  inhibition at 0.1 µM: 91%

## [2H]C1([2H])NCc2cc(-c3ccc4ncnn4c3)ccc2C1([2H])c1ccc(Cl)c(Cl)c1 (single isomer, unassigned) [Compound 16B, 7-([1,2,4]triazolo[1,5-a]pyridin-6-yl)-4-(3,4-dichlorophenyl)-1,2,3,4-tetrahydroisoquinoline-3,3,4-d3]
[1]
  DAT, %inhibition 10 nM: -2%

## CC(=O)N1CCc2c(c3ccc(-n4ccc(OCc5ccc(F)cn5)cc4=O)cc3n2C)C1 [1-(2-acetyl-5-methyl-2,3,4,5-tetrahydro-1H-pyrido[4,3-b]indol-7-yl)-4-((5-fluoropyridin-2-yl)methoxy)pyridin-2(1H)-one]
[3]
  contribution to MCHR1 antagonism: does not contribute to the pharmacology of MCHR1 antagonism

## CC(NC(C)(C)C)C(=O)c1cccc(Cl)c1 (centres unmarked) [Bupropion]
[4]; at efficacious doses
  Lowest Occupancy DAT: 14% (Bupropion)
[4]; at various approved doses
  DAT occupancy: 14-26%

## COC(=O)C(c1ccccc1)C1CCCCN1 (centres unmarked) [Methylphenidate]
[4]; at efficacious doses
  Highest Occupancy DAT: 74% (Methylphenidate)
[4]; at various approved doses
  DAT occupancy: 40-74%

## COc1ccc(C(CN(C)C)C2(O)CCCCC2)cc1 (centres unmarked) [Venlafaxine]
[5]
  Highest Occupancy NET: 61% (Venlafaxine)
  Lowest Occupancy NET: 8% (Venlafaxine)
  NET occupancies: 8-61%

## COC(=O)[C@H]1[C@@H](c2ccc(I)cc2)C[C@@H]2CC[C@H]1N2C [[^125I] RTI-55]
[6]
  Kd: 0.58 nM
[7]
  Kd: 24 nM

## NC(=O)C[S+]([O-])C(c1ccccc1)c1ccccc1 (centres unmarked) [modafinil]
[4]; at various approved doses
  DAT occupancy: 51-57%

## CCOC[C@@H]1[C@@H](c2ccc(Cl)c(Cl)c2)C[C@@H]2CC[C@H]1N2C [tesofensine]
[8]; PWS patients with the appropriate plasma drug level
  hyperphagia: controlled completely
[8]; PWS patients
  patients with plasma drug levels exceeding the safety levels who discontinued due to adverse events: ⅔
[8]; lowering the dosing for all patients
  efficacy: no efficacy
[4]; suggested as the optimal weight loss doses
  DAT occupancy: 50%-70%

## [^125I] Tyr-S36057
[9]
  Kd: 0.1 nM

— patent US20230084144A1, “THERAPEUTIC COMBINATIONS OF DRUGS AND METHODS OF USING THEM” (ConSynance Therapeutics, Inc., priority 2020, published 2023)
